The source of these data is ChEMBL document CHEMBL1147595, “Design and synthesis of photoactivatable aryl diketo acid-containing HIV-1 integrase inhibitors as potential affinity probes” (Bioorg Med Chem Lett, 2004).

For assay [1], the target named is T1, Human immunodeficiency virus type 1 integrase (Human immunodeficiency virus 1, UniProt Q7ZJM1). The assay is described as follows: Inhibition of Integrase (strand transfer) as measured in an in vitro assay.
Assay [2] has as its target T1, Human immunodeficiency virus type 1 integrase. The assay is described as follows: Inhibition of Integrase (3'-processing) as measured in an in vitro assay.
Assay [3] shares this target. The assay is described as follows: Inhibition of Integrase catalyzed strand transfer (ST) as measured in an in vitro assay.
Assay [4] has the same target. As to the kind of experiment: Inhibition of integrase catalyzed strand transfer (ST) as measured in an in vitro assay.

“And” between values parts separate entries of the source, which are not always exact repeats. Equal entries are not always repeated.

T1 sequence (Q7ZJM1 whole entry): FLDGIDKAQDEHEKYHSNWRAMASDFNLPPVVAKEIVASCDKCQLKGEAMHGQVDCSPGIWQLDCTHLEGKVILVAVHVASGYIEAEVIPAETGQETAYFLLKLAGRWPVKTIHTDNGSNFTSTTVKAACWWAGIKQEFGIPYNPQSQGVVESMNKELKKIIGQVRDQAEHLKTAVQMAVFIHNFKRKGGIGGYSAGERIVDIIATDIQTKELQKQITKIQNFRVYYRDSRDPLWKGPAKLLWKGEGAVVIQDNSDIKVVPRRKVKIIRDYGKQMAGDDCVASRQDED

In assay [1], `O=C(O)C(=O)CC(=O)c1cccc(Cc2ccccc2)c1` yielded an IC50 of less than 0.1 µM.
As to `O=C(O)C(=O)CC(=O)c1cccc(C(=O)c2ccccc2)c1`, the figures for the half-maximal inhibitory concentration (IC50) in assay [2], in assay [3] and in assay [4] were more than 100 µM, 2.1 µM and 2.7 µM, respectively.
Take `[N-]=[N+]=Nc1cccc(C(=O)CC(=O)C(=O)O)c1`: the IC50 in assay [2] is more than 100 µM; in assay [3] it was 5.3 µM and 5.2 µM.
Consider `O=C(O)C(=O)CC(=O)c1cccc(OCc2ccc(C(=O)c3ccccc3)cc2)c1`, for which the half-inhibitory concentration (IC50) in assay [2] was more than 100 µM; in assay [3], 19 µM and 29 µM.
